Assay results published in PubChem BioAssay (NCI).
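Protocol summary: plate cells (96-well), add compound at 5 concentrations, incubate 48 h, interpolate endpoints linearly. The concentration for 50% growth inhibition is given as GI50. TGI is the concentration that stops growth completely.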

Assays:
Test in all cases: NCI-60 cell line screen, 48 h; in the data active means GI50 below about 0.43 µM; inactive means the rest
[1] = test system: HCT-15 colon
[2] = test system: EKVX NSCLC
[3] = test system: 786-0 renal
[4] = test system: SW-620 colon
[5] = test system: M14 melanoma
[6] = test system: SF-268 CNS
[7] = test system: NCI-H522 lung
[8] = test system: UACC-62 melanoma
[9] = test system: MDA-MB-231 breast
[10] = test system: PC-3 prostate
[11] = test system: NCI-H23 lung
[12] = test system: K-562 leukemia
[13] = test system: OVCAR-8 ovarian
[14] = test system: A498 renal
[15] = test system: CCRF-CEM leukemia
[16] = test system: SK-MEL-2 melanoma
[17] = test system: CAKI-1 renal
[18] = test system: A549 NSCLC
[19] = test system: MOLT-4 leukemia
[20] = test system: OVCAR-3 ovarian
[21] = test system: UACC-257 melanoma
[22] = test system: ACHN renal
[23] = test system: NCI/ADR-RES ovarian
[24] = test system: HOP-92 NSCLC
[25] = test system: HL-60(TB) leukemia
[26] = test system: BT-549 breast
[27] = test system: SR leukemia
[28] = test system: DU-145 prostate
[29] = test system: HS 578T breast
[30] = test system: RPMI-8226 leukemia
[31] = test system: LOX IMVI melanoma
[32] = test system: SF-539 CNS
[33] = test system: SK-MEL-5 melanoma
[34] = test system: RXF 393 renal
[35] = test system: OVCAR-5 ovarian
[36] = test system: UO-31 renal
[37] = test system: KM12 colon
[38] = test system: SN12C renal
[39] = test system: IGROV1 ovarian
[40] = test system: NCI-H460 lung
[41] = test system: SF-295 CNS
[42] = test system: MDA-MB-435
[43] = test system: NCI-H226 lung
[44] = test system: HCC-2998 colon
[45] = test system: MCF7 breast
[46] = test system: HOP-62 NSCLC
[47] = test system: HCT-116 colon
[48] = test system: HT29 colon
[49] = test system: U251 CNS
[50] = test system: SK-OV-3 ovarian
[51] = test system: SK-MEL-28 melanoma
[52] = test system: T-47D breast
[53] = test system: OVCAR-4 ovarian
[54] = test system: MALME-3M melanoma
[55] = test system: SNB-75 CNS
[56] = test system: COLO 205 colon
[57] = test system: SNB-19 CNS
[58] = test system: TK-10 renal

C(#Cc1cnccn1)/C=C\C#Cc1cnccn1
10.6 µM: TGI [1]
39.9 µM: TGI [33]
83.9 µM: TGI [24]
10.5 µM: TGI [31]
16 µM: TGI [2]
44.3 µM: TGI [23]
6.92 µM: TGI [17]
inactive: GI50 [1] 2.74 µM | GI50 [2] 3.69 µM | GI50 [3] 10.7 µM | GI50 [4] 2.87 µM | GI50 [5] 1.72 µM | GI50 [6] 22.8 µM | GI50 [7] 2.4 µM | GI50 [8] 10.4 µM | GI50 [9] 4.4 µM | GI50 [10] 29.7 µM | GI50 [11] 1.65 µM | GI50 [12] 4.18 µM | GI50 [13] 12.5 µM | GI50 [14] 27.8 µM | GI50 [15] 2.67 µM | GI50 [16] 41.8 µM | GI50 [17] 2.14 µM | GI50 [18] 15.6 µM | GI50 [19] 11.4 µM | GI50 [20] 7.14 µM | GI50 [21] 7.43 µM | GI50 [22] 16 µM | GI50 [23] 7.46 µM | GI50 [24] 31.1 µM | GI50 [25] 24.1 µM | GI50 [26] 12 µM | GI50 [27] 3.54 µM | GI50 [28] 19.2 µM | GI50 [29] 31.6 µM | GI50 [30] 8.49 µM | GI50 [31] 1.65 µM | GI50 [32] 15.4 µM | GI50 [33] 19.8 µM | GI50 [34] 13 µM | GI50 [35] 16.4 µM | GI50 [36] 36 µM | GI50 [37] 3.43 µM | GI50 [38] 13.6 µM | GI50 [39] 33.1 µM | GI50 [40] 19.4 µM | GI50 [41] 15 µM | GI50 [42] 7.72 µM | GI50 [43] 23.3 µM | GI50 [44] 3.63 µM | GI50 [45] 14.1 µM
> 100 µM: TGI [6] | TGI [12] | TGI [13] | TGI [15] | TGI [16] | TGI [19] | TGI [25] | TGI [27] | TGI [29] | TGI [36] | TGI [39] | TGI [40] | TGI [45]
27.1 µM: TGI [21]
33.1 µM: TGI [42]
37.4 µM: TGI [26]
29 µM: TGI [3]
46.1 µM: TGI [32]
3.86 µM: TGI [5]
22.3 µM: TGI [8]
20.7 µM: TGI [9]
38.6 µM: TGI [34]
97.3 µM: TGI [10]
68.1 µM: TGI [43]
31.7 µM: TGI [35]
6.88 µM: TGI [4]
40 µM: TGI [22]
72 µM: TGI [28]
29.9 µM: TGI [38]
50.7 µM: TGI [14]
28.4 µM: TGI [20]
43.8 µM: TGI [30]
18.1 µM: TGI [7]
32.1 µM: TGI [41]
42.2 µM: TGI [18]
3.79 µM: TGI [11]
11.5 µM: TGI [44]
22.4 µM: TGI [37]

CCOC(=O)c1sc2nc(SC)nc3c2c1NCN3C1CC1
> 100 µM: TGI [46] | TGI [1] | TGI [3] | TGI [47] | TGI [48] | TGI [49] | TGI [50] | TGI [5] | TGI [6] | TGI [8] | TGI [9] | TGI [10] | TGI [11] | TGI [51] | TGI [13] | TGI [14] | TGI [15] | TGI [16] | TGI [17] | TGI [18] | TGI [20] | TGI [21] | TGI [22] | TGI [52] | TGI [23] | TGI [53] | TGI [24] | TGI [26] | TGI [54] | TGI [28] | TGI [29] | TGI [30] | TGI [31] | TGI [33] | TGI [55] | TGI [56] | TGI [34] | TGI [35] | TGI [36] | TGI [37] | TGI [57] | TGI [38] | TGI [39] | TGI [58] | TGI [40] | TGI [41] | TGI [42] | TGI [43] | TGI [44]
